# In patent US20060205772A1, “Amide derivatives and their use as inhibitors of 11-beta-hydroxysteroid dehydrogenase type I” (priority 2003, published 2006):
row,Compound,melting point
1,"CC1=C(C(=O)N2CCC[C@@H]3CCCC[C@H]32)Cc2ccccc21 (racemic) [Example 36, (3-Methyl-H-inden-2-yl)-(4aS*,8aR*)-octahydro-1(2H)-quinolin-1-yl-methanone]",98 to 100 °C
2,CN(C(=O)c1ccc(NC(=O)c2ccc(Cl)cc2Cl)cc1)C1CC2CCC1C2 (centres unmarked) [Example 8-9],85 to 100 °C
3,"CC1(C)CC[C@H]2[C@@H](CCCN2C(=O)c2ccc(NC(=O)c3ccc(Cl)cc3Cl)cc2)C1 (racemic) [Example 44, 2,4-Dichloro-N-[4-((4aS*,8aS*)-6,6-dimethyl-octahydro-1(2H)-quinoline-1-carbonyl)-phenyl]-benzamide]",220 to 221 °C
4,"O=C(Nc1cccc(-c2ccc(C(=O)N3CCC[C@H]4CCCC[C@@H]43)o2)c1)c1ccccc1 (racemic) [Example 34, N-{3-[5-((4aS*,8aR*)-Octahydro-1(2H)-quinoline-1-carbonyl)-furan-2-yl]-phenyl}-benzamide]",62 to 64 °C
5,"Cc1ccc(NC(=O)c2ccc(C(=O)N3CCC[C@H]4CCCC[C@@H]43)cc2)cc1 (racemic) [Example 22, 4-[(4aS*,8aR*)-Octahydro-1(2H)-quinoline-1-carbonyl]-N-p-tolylbenzamide]",199 to 203 °C
6,C[C@H]1CCCC[C@@H]1N(C)C(=O)c1ccc(NC(=O)c2ccc(Cl)cc2Cl)cc1 [Example 8-8],80 to 90 °C
7,"O=C(Nc1ccc(C(=O)N2CCC[C@H]3CCCC[C@@H]32)cn1)c1ccc(F)cc1 (racemic) [Example 26, 4-Fluoro-N-{5-[(4aS*,8aR*)-octahydro-1(2H)-quinoline-1-carbonyl]-pyridin-2-yl}-benzamide]",144 to 145 °C

# The next lines start with the values.
row,melting point,Compound
1,183 to 184 °C,"O=C(Nc1ccc(C(=O)N2CCC[C@H]3CC(O)CC[C@@H]32)cc1)c1ccc(Cl)cc1Cl (relative stereo) [Example 41, 2,4-Dichloro-N-[4-((4aS*,6S*,8aS*)-6-hydroxy-octahydro-1(2H)-quinoline-1-carbonyl)-phenyl]-benzamide]"
2,158 to 160 °C,"CN(CC1CCCCC1)C(=O)c1ccc(NC(=O)c2ccc(F)cc2)cc1 [Example 1, N-Cyclohexylmethyl-4-fluorobenzoylamino-N-methylbenzamide]"
3,251 to 260 °C,"COc1ccc(C(=O)Nc2ccc(C(=O)N3CCC[C@H]4CCCC[C@@H]43)c3ccccc23)cc1OC (racemic) [Example 27, 3,4-Dimethoxy-N-{4-[(4aS*,8aR*)-octahydro-1(2H)-quinoline-1-carbonyl]-naphthalen-1-yl}-benzamide]"
4,202 to 203 °C,"O=C(Nc1ccc(C(=O)N2CCC[C@H]3CCCC[C@@H]32)cn1)c1ccc(Cl)cc1Cl (racemic) [Example 25, 2,4-Dichloro-N-{5-[(4aS*,8aR*)-octahydro-1(2H)-quinoline-1-carbonyl]-pyridin-2-yl}-benzamide]"
